Assay results as given in patent US12290588B2, “Peptide having activity of improving skin condition and use thereof” (CAREGEN CO., LTD., priority 2019, dated 2025).

Assays:
MMP-2 = experiment: Gelatin zymography of MMP-2 activity in UV-irradiated fibroblasts; format: cell-based, mouse; conditions: NIH3T3 fibroblasts, UV 6 J/cm^2, peptide 10, 50 or 100 μM before and 24 hours after irradiation, gelatin zymography (FIG. 5)
Protocol: (§1) NIH3T3 mouse fibroblasts were seeded in a 6-well plate at a density of 3×10^5 cells/well, and cultured for 16 hours. Afterwards, the culture medium was replaced with a serum-free medium, the peptide consisting of the amino acid sequence of SEQ ID NO: 1 was added thereto at a concentration of 10 μM, 50 μM, or 100 μM, and the cells were cultured for 1 hour. Each well containing the cultured cells was washed with PBS, and the NIH3T3 cells were irradiated with ultraviolet light of 6 J/cm^2, so as to induce an increase in the expression of MMP-1 and MMP-2. Afterwards, the culture medium was replaced with a serum-free medium, the peptide consisting of the amino acid sequence of SEQ ID NO: 1 was added thereto at a concentration of 10 μM, 50 μM, or 100 μM, and the cells were cultured for 24 hours. Afterwards, cell lysates were obtained by adding a lysis buffer to the cultured cells, and then, western blotting was performed thereon by using MMP-1 antibodies (cell signaling, USA) to measure the expression of MMP-1.
Meanwhile, the cell lysates were subjected to gelatin zymography to measure the activity of MMP-2. In detail, after protein electrophoresis (SDS-PAGE) was performed by using 2 mg/ml of gelatin as a substrate. […]

SIRT1 = experiment: RT-PCR of SIRT1 expression in UV-irradiated keratinocytes; format: cell-based, human; conditions: HaCaT keratinocytes, UV 20 J/cm^2, peptide 10, 50 or 100 μM before and 6 hours after irradiation, PCR (FIG. 7)
Protocol: (§2) In this example, changes in the cellular activity of fibroblasts were evaluated through the expression of Col1a1, Fibronectin, and Elastin, which are known as components of the dermis. Also, changes in the cellular activity of keratinocytes were evaluated through the expression of SIRT1, which is an anti-aging gene, and AQP3, which is a component of the skin barrier. Based on the evaluation results, the effect of the peptide according to an embodiment on the restoration of the cellular activity of the fibroblasts and keratinocytes was confirmed. In detail, NIH3T3 mouse fibroblasts or HaCaT human keratinocytes were respectively seeded in a 6-sell plate at a density of 3×10^5 cells/well, and cultured for 16 hours. Afterwards, the culture medium was replaced with a serum-free medium, the peptide consisting of the amino acid sequence of SEQ ID NO: 1 was added thereto at a concentration of 10 μM, 50 μM, or 100 μM, and the cells were cultured for 1 hour. Each well containing the cultured cells was washed with PBS, and the NIH3T3 cells or the HaCaT cells were respectively irradiated with ultraviolet light of 6 J/cm^2 or 20 J/cm^2, so as to induce inhibition of the cellular activity. […]

PPAR-γ = experiment: RT-PCR of PPAR-γ expression in fibroblasts; format: cell-based; conditions: NIH3T3 mouse fibroblasts, peptide 10, 50 or 100 μM, 24 hours, PCR (FIG. 2)
Protocol: (§3) In this example, an effect the peptide according to an embodiment on the cellular activity of fibroblasts was to be confirmed by measuring the expression levels of PPAR-γ, PPAR-δ, and PGC-1α, which are mitochondrial biogenesis-related genes. In detail, NIH3T3 mouse fibroblasts were seeded in a 6-well plate at a density of 3×10^5 cells/well, and cultured for 16 hours. Afterwards, the culture medium was replaced with a serum-free medium, the peptide consisting of the amino acid sequence of SEQ ID NO: 1 was added thereto at a concentration of 10 μM, 50 μM, or 100 μM, and the cells were cultured for 24 hours. Then, mRNA was extracted from the cultured cells, and reverse-transcribed into cDNA by using a cDNA synthesis kit and PCR pre-mix (Intron, Korea). Afterwards, a polymerase chain reaction (PCR) was performed by using the cDNA and primers of PPAR-γ, PPAR-δ, and PGC-1α. Meanwhile, a control group and positive groups were used in the same manner as in Example 2, and the nucleotide sequences of the primers used herein are shown in Table 2.

AQP3 = experiment: RT-PCR of AQP3 expression in UV-irradiated keratinocytes; format: cell-based, human; conditions: HaCaT keratinocytes, UV 20 J/cm^2, peptide 10, 50 or 100 μM before and 6 hours after irradiation, PCR (FIG. 7)
Protocol: as §2

cleaved caspase-3 [1] = experiment: Western blotting of cleaved caspase-3 in UV-irradiated fibroblasts; format: cell-based, mouse; conditions: NIH3T3 fibroblasts, UV 6 J/cm^2, peptide 10, 50 or 100 μM before and 24 hours after irradiation, western blotting (FIG. 3)
Protocol: (§4) NIH3T3 mouse fibroblasts or HaCaT human keratinocytes were respectively seeded in a 6-sell plate at a density of 3×10^5 cells/well, and cultured for 16 hours. Afterwards, the culture medium was replaced with a serum-free medium, the peptide consisting of the amino acid sequence of SEQ ID NO: 1 was added thereto at a concentration of 10 μM, 50 μM, or 100 μM, and the cells were cultured for 1 hour. Each well containing the cultured cells was washed with phosphate buffered saline (PBS), and the NIH3T3 cells or HaCaT cells were respectively irradiated with ultraviolet light of 6 J/cm^2 or 15 J/cm^2, so as to induce an increase in the expression of apoptosis proteins. Afterwards, the culture medium was replaced with a serum-free medium, the peptide consisting of the amino acid sequence of SEQ ID NO: 1 was added thereto at a concentration of 10 μM, 50 μM, or 100 μM, and the cells were cultured for 24 hours. Cell lysates were obtained by adding a lysis buffer to the cultured cells, and then, western blotting was performed thereon by using cleaved PARP-1 and cleaved caspase-3 antibodies (Santacruz biotechnology, USA). Meanwhile, a non-treated group (Con) was used as a control group. […]

IL-6 = experiment: RT-PCR of IL-6 expression in UV-irradiated keratinocytes; format: cell-based, human; conditions: HaCaT keratinocytes, peptide 10, 50 or 100 μM for 1 hour, UV 15 J/cm^2, PCR (FIG. 8)
Protocol: (§5) HaCaT human keratinocytes were seeded in a 6-well plate at a density of 3×10^5 cells/well, and cultured for 16 hours. Afterwards, the culture medium was replaced with a serum-free medium, the peptide consisting of the amino acid sequence of SEQ ID NO: 1 was added thereto at a concentration of 10 μM, 50 μM, or 100 μM, and the cells were cultured for 1 hour. Each well containing the cultured cells was washed with PBS, and the HaCaT cells were irradiated with ultraviolet light of 15 J/cm^2, so as to induce an increase in the expression of inflammatory cytokine which is an inflammatory factor. Then, mRNA was extracted from the cultured cells, and reverse-transcribed into cDNA by using a cDNA synthesis kit and PCR pre-mix (Intron, Korea). Afterwards, PCR was performed by using the cDNA and primers of TNF-α, COX-2, IL-1β, and IL-6. Meanwhile, a control group and a positive group were used in the same manner as in Example 4, and the nucleotide sequences of the primers used herein are shown in Table 5.

TNF-α = experiment: RT-PCR of TNF-α expression in UV-irradiated keratinocytes; format: cell-based, human; conditions: HaCaT keratinocytes, peptide 10, 50 or 100 μM for 1 hour, UV 15 J/cm^2, PCR (FIG. 8)
Protocol: as §5

cleaved caspase-3 [2] = experiment: Western blotting of cleaved caspase-3 in UV-irradiated keratinocytes; format: cell-based, human; conditions: HaCaT keratinocytes, UV 15 J/cm^2, peptide 10, 50 or 100 μM before and 24 hours after irradiation, western blotting (FIG. 4)
Protocol: as §4

IL-1β = experiment: RT-PCR of IL-1β expression in UV-irradiated keratinocytes; format: cell-based, human; conditions: HaCaT keratinocytes, peptide 10, 50 or 100 μM for 1 hour, UV 15 J/cm^2, PCR (FIG. 8)
Protocol: as §5

PPAR-δ = experiment: RT-PCR of PPAR-δ expression in fibroblasts; format: cell-based; conditions: NIH3T3 mouse fibroblasts, peptide 10, 50 or 100 μM, 24 hours, PCR (FIG. 2)
Protocol: as §3

PGC-1α = experiment: RT-PCR of PGC-1α expression in fibroblasts; format: cell-based; conditions: NIH3T3 mouse fibroblasts, peptide 10, 50 or 100 μM, 24 hours, PCR (FIG. 2)
Protocol: as §3

Fibronectin = experiment: RT-PCR of Fibronectin expression in UV-irradiated fibroblasts; format: cell-based, mouse; conditions: NIH3T3 fibroblasts, UV 6 J/cm^2, peptide 10, 50 or 100 μM before and 6 hours after irradiation, PCR (FIG. 6)
Protocol: as §2

Col1a1 = experiment: RT-PCR of Col1a1 expression in UV-irradiated fibroblasts; format: cell-based, mouse; conditions: NIH3T3 fibroblasts, UV 6 J/cm^2, peptide 10, 50 or 100 μM before and 6 hours after irradiation, PCR (FIG. 6)
Protocol: as §2

MMP-1 = experiment: Western blotting of MMP-1 in UV-irradiated fibroblasts; format: cell-based, mouse; conditions: NIH3T3 fibroblasts, UV 6 J/cm^2, peptide 10, 50 or 100 μM before and 24 hours after irradiation, western blotting (FIG. 5)
Protocol: as §1

Elastin = experiment: RT-PCR of Elastin expression in UV-irradiated fibroblasts; format: cell-based, mouse; conditions: NIH3T3 fibroblasts, UV 6 J/cm^2, peptide 10, 50 or 100 μM before and 6 hours after irradiation, PCR (FIG. 6)
Protocol: as §2

COX-2 = experiment: RT-PCR of COX-2 expression in UV-irradiated keratinocytes; format: cell-based, human; conditions: HaCaT keratinocytes, peptide 10, 50 or 100 μM for 1 hour, UV 15 J/cm^2, PCR (FIG. 8)
Protocol: as §5

cleaved PARP-1 = experiment: Western blotting of cleaved PARP-1 in UV-irradiated keratinocytes; format: cell-based, human; conditions: HaCaT keratinocytes, UV 15 J/cm^2, peptide 10, 50 or 100 μM before and 24 hours after irradiation, western blotting (FIG. 4)
Protocol: as §4

procollagen 1α = experiment: Procollagen 1α ELISA in fibroblast medium; format: cell-based; conditions: NIH3T3 mouse fibroblasts, peptide 10, 50 or 100 μM, 24 hours, ELISA of medium (FIG. 1)
Protocol: NIH3T3 mouse fibroblasts were seeded in a 6-well plate at a density of 5×10^3 cells/well, and cultured for 16 hours. Afterwards, the culture medium was replaced with a serum-free medium, the peptide consisting of the amino acid sequence of SEQ ID NO: 1 was added thereto at a concentration of 10 μM, 50 μM, or 100 μM, and the cells were cultured for 24 hours. Then, the amount of procollagen 1α in the medium was measured by using a Procollagen 1α ELISA kit (Us biological lifescience, USA). Meanwhile, a non-treated group (Con) was used as a control group, and a group to which 100 nM of bFGF was added and a group to which 5 ng/ml of TGF-β1 was added were used as positive control groups.

ECEELEEK (Peptide 1) [SEQ ID NO: 1]
activity of MMP-2 increased by ultraviolet irradiation (MMP-2): reduced
expression of SIRT1 reduced by ultraviolet irradiation (SIRT1): restored
expression of PPAR-γ (PPAR-γ): increased
expression of AQP3 reduced by ultraviolet irradiation (AQP3): restored
expression of cleaved caspase-3 increased by ultraviolet irradiation (cleaved caspase-3 [1]): reduced
expression of IL-6 increased by ultraviolet irradiation (IL-6): reduced
expression of TNF-α increased by ultraviolet irradiation (TNF-α): reduced
expression of cleaved caspase-3 increased by ultraviolet irradiation (cleaved caspase-3 [2]): significantly reduced
expression of IL-1β increased by ultraviolet irradiation (IL-1β): reduced
expression of PPAR-δ (PPAR-δ): increased
expression of PGC-1α (PGC-1α): increased
expression of Fibronectin inhibited by ultraviolet irradiation (Fibronectin): restored back to normal levels
expression of Col1 a1 inhibited by ultraviolet irradiation (Col1a1): restored back to normal levels
expression of MMP-1 increased by ultraviolet irradiation (MMP-1): reduced
expression of Elastin inhibited by ultraviolet irradiation (Elastin): restored back to normal levels
expression of COX-2 increased by ultraviolet irradiation (COX-2): reduced
expression of cleaved PARP-1 increased by ultraviolet irradiation (cleaved PARP-1): significantly reduced
expression of procollagen 1α (procollagen 1α): increased
